{"source": "patent US4431638A", "about": "“Poly-cation salts of bis(or tris)[4-0-monohexose-thio]-arylene sulfate derivatives” (American Cyanamid Company, priority 1982, dated 1984)", "key": {"activated human C1": {"target": "activated human C1 (Homo sapiens, UniProt P09871)", "assay": "Test Code 026 (C1 inhibitor)", "type": "biochemical", "conditions": "serial twofold dilution assay; higher well number indicates higher activity", "experimental": "(§1) Percent inhibition is calculated by comparison with simultaneous controls.\n(§2) *Tests identified by code herein. For a discussion of the tests, see\n(§3) **Activity in wells, a serial dilution assay; higher well number indicate"}, "[1]": {"system": "late components of human complement (C3-C9)", "assay": "Test Code 035 (C3-C9 inhibitor), lysis of EAC 142", "type": "biochemical", "conditions": "serial twofold dilution assay; higher well number indicates higher activity", "experimental": "as §1, §2, §3"}, "[2]": {"system": "complement activity of sera", "assay": "Guinea Pig Intraperitoneal Test (GPIP)", "type": "in vivo", "conditions": "200 mg/kg i.p.; for inhibition at 200 mg/kg: Cavia porcellus, ip", "experimental": "as §1"}, "complement system": {"system": "complement system", "conditions": "Br. J. Exp. Pathol. 33: 327 (1952); cited from earlier work"}, "[3]": {"system": "hereditary angioneurotic edema", "conditions": "known complement inhibitors, literature reports; cited from earlier work"}, "[4]": {"system": "total hemolytic complement activity", "conditions": "both in vitro and in vivo; cited from earlier work"}}, "note": "Read-outs that look alike come from different tables or passages of the source.", "data": [{"molecule": "O=C(Nc1ccc(S[C@@H]2O[C@H](COS(=O)(=O)O)[C@@H](OS(=O)(=O)O)[C@H](OS(=O)(=O)O)[C@H]2OS(=O)(=O)O)cc1)c1cc(C(=O)Nc2ccc(S[C@@H]3O[C@H](COS(=O)(=O)O)[C@@H](OS(=O)(=O)O)[C@H](OS(=O)(=O)O)[C@H]3OS(=O)(=O)O)cc2)cc(C(=O)Nc2ccc(S[C@@H]3O[C@H](COS(=O)(=O)O)[C@@H](OS(=O)(=O)O)[C@H](OS(=O)(=O)O)[C@H]3OS(=O)(=O)O)cc2)c1.[Na].[Na].[Na].[Na].[Na].[Na].[Na].[Na].[Na].[Na].[Na].[Na]", "note": "[Dodecasodium N,N',N\"-tris[4-[(2,3,4,6-tetra-O-sulfo-β-D-glucopyranosyl)thio]phenyl]-1,3,5-benzenetricarboxamide]", "values": [{"measurement": "In vitro Activity C-1 026 Wells", "setting": "activated human C1", "result": 4, "unit": "Wells"}, {"measurement": "In vitro Activity C-Late 035 Wells", "setting": "[1]", "result": 1, "unit": "Wells"}]}, {"molecule": "O=S(=O)(O)OC[C@H]1O[C@@H](Sc2ccc(NS(=O)(=O)c3cc(S(=O)(=O)Nc4ccc(S[C@@H]5O[C@H](COS(=O)(=O)O)[C@@H](OS(=O)(=O)O)[C@H](OS(=O)(=O)O)[C@H]5OS(=O)(=O)O)cc4)cc(S(=O)(=O)Nc4ccc(S[C@@H]5O[C@H](COS(=O)(=O)O)[C@@H](OS(=O)(=O)O)[C@H](OS(=O)(=O)O)[C@H]5OS(=O)(=O)O)cc4)c3)cc2)[C@H](OS(=O)(=O)O)[C@@H](OS(=O)(=O)O)[C@@H]1OS(=O)(=O)O.[Na].[Na].[Na].[Na].[Na].[Na].[Na].[Na].[Na].[Na].[Na].[Na]", "note": "[Dodecasodium N,N',N\"-tris[4-[(2,3,4,6-tetra-O-sulfo-β-D-glucopyranosyl)thio]phenyl]-1,3,5-benzenetrisulfonamide]", "values": [{"measurement": "In vitro Activity C-1 026 Wells", "setting": "activated human C1", "result": 10, "unit": "Wells"}, {"measurement": "In vitro Activity C-Late 035 Wells", "setting": "[1]", "result": 2, "unit": "Wells"}, {"measurement": "In vivo Activity (Guinea Pig % Inhibition) Intraperitoneal, 2 hours", "setting": "[2]; serum complement 2 hours after injection", "result": 93, "unit": "%"}, {"measurement": "In vivo Activity (Guinea Pig % Inhibition) Intraperitoneal, 6 hours", "setting": "[2]; serum complement 6 hours after injection", "result": 76, "unit": "%"}, {"measurement": "inhibition at 200 mg/kg", "setting": "[2]; 2 h, serum complement 2 hours after injection, read-out: In vivo Activity (Guinea Pig % Inhibition) Intraperitoneal, 2 hours", "result": 91, "unit": "%"}, {"measurement": "inhibition at 200 mg/kg", "setting": "[2]; 6 h, serum complement 6 hours after injection, read-out: In vivo Activity (Guinea Pig % Inhibition) Intraperitoneal, 6 hours", "result": 91, "unit": "%"}, {"measurement": "inhibition at 200 mg/kg", "setting": "[2]; 24 h, serum complement 24 hours after injection, read-out: In vivo Activity (Guinea Pig % Inhibition) Intraperitoneal, 24 hours", "result": 87, "unit": "%"}]}, {"molecule": "O=S(=O)(O)OC[C@H]1O[C@@H](Sc2ccc(NS(=O)(=O)c3ccc4c(S(=O)(=O)Nc5ccc(S[C@@H]6O[C@H](COS(=O)(=O)O)[C@@H](OS(=O)(=O)O)[C@H](OS(=O)(=O)O)[C@H]6OS(=O)(=O)O)cc5)cc(S(=O)(=O)Nc5ccc(S[C@@H]6O[C@H](COS(=O)(=O)O)[C@@H](OS(=O)(=O)O)[C@H](OS(=O)(=O)O)[C@H]6OS(=O)(=O)O)cc5)cc4c3)cc2)[C@H](OS(=O)(=O)O)[C@@H](OS(=O)(=O)O)[C@@H]1OS(=O)(=O)O", "note": "[Dodecasodium N,N',N\"-tris[4-[(2,3,4,6-tetra-O-sulfo-β-D-glucopyranosyl)thio]phenyl]-1,3,6-naphthylenetrisulfonamide]", "values": [{"measurement": "In vitro Activity C-1 026 Wells", "setting": "activated human C1", "result": 5, "unit": "Wells"}, {"measurement": "In vitro Activity C-Late 035 Wells", "setting": "[1]", "result": 1, "unit": "Wells"}]}, {"molecule": "O=C(Nc1ccc(S[C@@H]2O[C@H](COS(=O)(=O)O)[C@@H](OS(=O)(=O)O)[C@H](OS(=O)(=O)O)[C@H]2OS(=O)(=O)O)cc1)c1ccc(C(=O)Nc2ccc(S[C@@H]3O[C@H](COS(=O)(=O)O)[C@@H](OS(=O)(=O)O)[C@H](OS(=O)(=O)O)[C@H]3OS(=O)(=O)O)cc2)cc1.[Na].[Na].[Na].[Na].[Na].[Na].[Na].[Na]", "note": "[Octasodium N,N'-bis[4-[(2,3,4,6-tetra-O-sulfo-β-D-glucopyranosyl)thio]phenyl]-1,4-benzenedicarboxamide]", "values": [{"measurement": "In vitro Activity C-1 026 Wells", "setting": "activated human C1", "result": 4, "unit": "Wells"}, {"measurement": "In vitro Activity C-Late 035 Wells", "setting": "[1]", "result": 1, "unit": "Wells"}]}, {"molecule": "Nc1ccc2cc(S(=O)(=O)[O-])cc(O)c2c1N=Nc1ccc(NC(=O)Nc2ccc(N=Nc3c(N)ccc4cc(S(=O)(=O)[O-])cc(O)c34)c(S(=O)(=O)[O-])c2)cc1S(=O)(=O)[O-].[Na+].[Na+].[Na+].[Na+]", "note": "[chlorazol fast pink, 3,3'-ureylenebis[6-(2-amino-8-hydroxy-6-sulfo-1-naphthylazo)benzenesulfonic acid], tetrasodium salt]", "values": [{"measurement": "anticomplementary effect", "setting": "complement system", "result": "anticomplementary effect"}]}, {"molecule": "NCCCCCC(=O)O", "note": "[epsilon-aminocaproic acid]", "values": [{"measurement": "success in the treatment of hereditary angioneurotic edema", "setting": "[3]", "result": "used with success"}]}, {"molecule": "NC[C@H]1CC[C@H](C(=O)O)CC1", "note": "[tranexamic acid]", "values": [{"measurement": "success in the treatment of hereditary angioneurotic edema", "setting": "[3]", "result": "used with success"}]}, {"molecule": "heparin", "values": [{"measurement": "anticomplementary effect", "setting": "complement system", "result": "anticomplementary effect"}]}, {"molecule": "pentosan-polysulfoester", "values": [{"measurement": "anticomplementary activity on human serum, judged by reduction in total hemolytic complement activity", "setting": "[4]", "result": "anticomplementary activity"}]}]}
